{"source": "patent US11453690B2", "about": "“Receptor inhibitor, pharmaceutical composition comprising same, and use thereof” (BEIJING TIDE PHARMACEUTICAL CO., LTD., priority 2018, dated 2022)", "key": {"AT1 Receptor (AT1R)": {"biological_target": "AT1 Receptor (AT1R) (Homo sapiens (Human), UniProt P30556)", "sequence (P30556 whole entry)": "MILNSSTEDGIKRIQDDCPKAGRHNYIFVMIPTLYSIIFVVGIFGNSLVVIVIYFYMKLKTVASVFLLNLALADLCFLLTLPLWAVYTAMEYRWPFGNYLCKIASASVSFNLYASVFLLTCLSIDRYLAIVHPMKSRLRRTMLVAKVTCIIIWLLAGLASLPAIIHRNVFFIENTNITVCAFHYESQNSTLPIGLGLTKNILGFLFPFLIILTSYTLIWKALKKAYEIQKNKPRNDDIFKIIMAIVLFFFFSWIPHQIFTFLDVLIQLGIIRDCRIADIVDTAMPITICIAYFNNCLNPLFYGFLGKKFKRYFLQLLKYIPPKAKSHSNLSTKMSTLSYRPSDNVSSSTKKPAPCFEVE", "assay": "Measurement of inhibitory activity on AT1 receptor (Tag-lite HTRF, Tb-labeled AT1R cells, angiotensin receptor red agonist)", "type": "binding", "details": "1 h room temperature", "experimental": "Measurement of Inhibitory Activity on AT1 Receptor ([…])/AT2 Receptor (AT2R)\nThrough the following steps, the inhibitory activity of the compound on AT1R/AT2R (IC50 value) was determined:\n1) An appropriate amount of 1×TLB (Tag-lite Buffer) was prepared and well mixed for use.\n2) The compound was diluted by 10 times with ddH2O or DMSO. The compound was then dilute to 4 times of the working concentration with 1×TLB and mixed well for use.\n3) 8600 nM Tag-lite angiotensin receptor red agonist was diluted to 12 nM (4×Kd) with 1×TLB.\n4) 5 ml 1×TLB was taken into a 15 ml centrifuge tube.\n5) After thawing 1 tube of Tb-labeled AT1R/AT2R cells in a 37° C. water bath, the cells were quickly transferred to the 1×TLB in step 4), mixed gently, and centrifuged at 1200 g for 5 minutes at room temperature.\n6) The supernatant was aspirated gently, and the cells were resuspended and mixed in 2.7 ml 1×TLB, and then placed at room temperature until use.\n7) 10 μl cells were added to all test wells, and 5 μl 4× working solution of the compound from step 2) was added to the corresponding test wells. 5 μl 4× Tag-lite angiotensin receptor red agonist well diluted in step 3) was added to all test wells.\n8) After leaving the reaction plate at room temperature for 1 h, data were measured and analyzed using Envision HTRF Reader, and the half inhibitory concentration (IC50) of the compound on AT1R/AT2R was calculated with the GraphPad Prism four-parameter equation."}, "AT2 Receptor (AT2R)": {"biological_target": "AT2 Receptor (AT2R) (Homo sapiens (Human), UniProt P50052)", "sequence (P50052 whole entry)": "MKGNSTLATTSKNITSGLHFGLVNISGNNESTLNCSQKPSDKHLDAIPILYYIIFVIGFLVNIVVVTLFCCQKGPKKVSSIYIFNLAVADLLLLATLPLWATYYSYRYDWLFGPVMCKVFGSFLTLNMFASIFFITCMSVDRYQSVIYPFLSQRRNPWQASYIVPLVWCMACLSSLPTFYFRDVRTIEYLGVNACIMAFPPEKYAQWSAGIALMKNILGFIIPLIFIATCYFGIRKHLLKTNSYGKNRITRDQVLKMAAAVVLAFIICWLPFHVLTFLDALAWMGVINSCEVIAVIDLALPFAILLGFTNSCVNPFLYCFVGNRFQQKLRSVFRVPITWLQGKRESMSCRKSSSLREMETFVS", "assay": "Measurement of inhibitory activity on AT2 receptor (Tag-lite HTRF, Tb-labeled AT2R cells, angiotensin receptor red agonist)", "type": "binding", "details": "1 h room temperature"}}}
{"smiles": "CN(Cc1ccccc1)C(=O)N1[C@H]2CC[C@@H]1[C@@H](C(=O)O)N(C(=O)N(c1ccccc1)c1ccccc1)C2", "note": "[Compound C112, (1R,2S,5S)-8-(benzyl(methyl)carbamoyl)-3-(diphenylcarbamoyl)-3,8-diazabicyclo [3.2.1]octane-2-carboxylic acid]", "values": [{"measurement": "IC50", "setting": "AT1 Receptor (AT1R)", "result": "> 10000", "unit": "nM"}, {"measurement": "IC50", "setting": "AT2 Receptor (AT2R)", "result": 21.5, "unit": "nM"}]}
{"smiles": "O=C(O)[C@@H]1[C@H]2CC[C@@H](CN1C(=O)N(c1ccccc1)c1ccccc1)N2C(=O)C(c1ccccc1)c1ccccc1", "note": "[Compound C12, (1R,2S,5S)-8-(2,2-diphenylacetyl)-3-(diphenylcarbamoyl)-3,8-diazabicyclo [3.2.1]octane-2-carboxylic acid]", "values": [{"measurement": "IC50", "setting": "AT1 Receptor (AT1R)", "result": "> 10000", "unit": "nM"}, {"measurement": "IC50", "setting": "AT2 Receptor (AT2R)", "result": 17.1, "unit": "nM"}]}
{"smiles": "O=C(O)[C@@H]1[C@H]2CC[C@@H](CN1C(=O)C(c1ccccc1)c1ccccc1)N2C(=O)C(c1ccccc1)c1ccccc1", "note": "[Compound C1, (1R,2S,5S)-3,8-bis(2,2-diphenylacetyl)-3,8-diazabicyclo[3.2.1]octane-2-carboxylic acid]", "values": [{"measurement": "IC50", "setting": "AT1 Receptor (AT1R)", "result": "> 10000", "unit": "nM"}, {"measurement": "IC50", "setting": "AT2 Receptor (AT2R)", "result": 6.67, "unit": "nM"}]}
{"smiles": "CCN(Cc1ccccc1)C(=O)N1[C@H]2CC[C@@H]1[C@@H](C(=O)O)N(C(=O)N(c1ccccc1)c1ccccc1)C2", "note": "[Compound C155, (1R,2S,5S)-8-(benzyl (ethyl)carbamoyl)-3-(diphenylcarbamoyl)-3,8-diazabicyclo [3.2.1]octane-2-carboxylic acid]", "values": [{"measurement": "IC50", "setting": "AT1 Receptor (AT1R)", "result": "> 10000", "unit": "nM"}, {"measurement": "IC50", "setting": "AT2 Receptor (AT2R)", "result": 9.03, "unit": "nM"}]}
{"smiles": "CN(Cc1ccc(C#N)cc1)C(=O)N1[C@H]2CC[C@@H]1[C@H](C(=O)O)N(C(=O)N(c1ccccc1)c1ccccc1)C2", "note": "[Compound C167, (1R,2R,5S)-8-((4-cyanobenzyl) (methyl)carbamoyl)-3-(diphenylcarbamoyl)-3,8-diazabicyclo [3.2.1]octane-2-carboxylic acid]", "values": [{"measurement": "IC50", "setting": "AT1 Receptor (AT1R)", "result": "> 10000", "unit": "nM"}, {"measurement": "IC50", "setting": "AT2 Receptor (AT2R)", "result": 18.9, "unit": "nM"}]}
{"smiles": "COc1ccc(CN(C)C(=O)N2[C@H]3CC[C@@H]2[C@@H](C(=O)O)N(C(=O)N(c2ccccc2)c2ccccc2)C3)cc1", "note": "[Compound C166]", "values": [{"measurement": "IC50", "setting": "AT1 Receptor (AT1R)", "result": "> 10000", "unit": "nM"}, {"measurement": "IC50", "setting": "AT2 Receptor (AT2R)", "result": 4.42, "unit": "nM"}]}
{"smiles": "CN(Cc1ccccn1)C(=O)N1[C@H]2CC[C@@H]1[C@@H](C(=O)O)N(C(=O)C(c1ccccc1)c1ccccc1)C2", "note": "[Compound C123, (1R,2S,5S)-3-(2,2-diphenylacetyl)-8-(methyl(pyridine-2-ylmethyl)carbamoyl)-3,8-diazabicyclo [3.2.1]octane-2-carboxylic acid]", "values": [{"measurement": "IC50", "setting": "AT1 Receptor (AT1R)", "result": "> 10000", "unit": "nM"}, {"measurement": "IC50", "setting": "AT2 Receptor (AT2R)", "result": 11.7, "unit": "nM"}]}
{"smiles": "O=C(O)[C@@H]1[C@H]2CC[C@@H](CN1C(=O)C(c1ccccc1)c1ccccc1)N2C(=O)OCc1ccccc1", "note": "[Compound C34, (1R,2S,5S)-8-((benzyloxy)carbonyl)-3-(2,2-diphenylacetyl)-3,8-diazabicyclo[3.2.1]octane-2-carboxylic acid]", "values": [{"measurement": "IC50", "setting": "AT1 Receptor (AT1R)", "result": "> 10000", "unit": "nM"}, {"measurement": "IC50", "setting": "AT2 Receptor (AT2R)", "result": 35.2, "unit": "nM"}]}
{"smiles": "O=C(O)[C@@H]1[C@H]2CC[C@@H](CN1C(=O)N1c3ccccc3C=Cc3ccccc31)N2C(=O)C(c1ccccc1)c1ccccc1", "note": "[Compound C10, (1R,2S,5S)-3-(5H-dibenzo[b,f]azepine-5-carbonyl)-8-(2,2-diphenylacetyl)-3,8-diazabicyclo [3.2.1]octane-2-carboxylic acid]", "values": [{"measurement": "IC50", "setting": "AT1 Receptor (AT1R)", "result": "> 10000", "unit": "nM"}, {"measurement": "IC50", "setting": "AT2 Receptor (AT2R)", "result": 58.8, "unit": "nM"}]}
{"smiles": "O=C(O)[C@H]1[C@@H]2CC[C@H](CN1C(=O)N(c1ccccc1)c1ccccc1)N2C(=O)N(c1ccccc1)c1ccccc1", "note": "[Compound C14, (1S,2R,5R)-3,8-bis (diphenylcarbamoyl)-3,8-diazabicyclo [3.2.1]octane-2-carboxylic acid]", "values": [{"measurement": "IC50", "setting": "AT1 Receptor (AT1R)", "result": "> 10000", "unit": "nM"}, {"measurement": "IC50", "setting": "AT2 Receptor (AT2R)", "result": 29.4, "unit": "nM"}]}
{"smiles": "CN(Cc1ccccc1Cl)C(=O)N1[C@H]2CC[C@@H]1[C@@H](C(=O)O)N(C(=O)N(c1ccccc1)c1ccccc1)C2", "note": "[Compound C149, (1R,2S,5S)-8-((2-chlorobenzyl) (methyl)carbamoyl)-3-(diphenylcarbamoyl)-3,8-diazabicyclo [3.2.1]octane-2-carboxylic acid]", "values": [{"measurement": "IC50", "setting": "AT1 Receptor (AT1R)", "result": "> 10000", "unit": "nM"}, {"measurement": "IC50", "setting": "AT2 Receptor (AT2R)", "result": 16.6, "unit": "nM"}]}
{"smiles": "O=C(O)[C@@H]1[C@H]2CC[C@@H](CN1C(=O)N(c1ccccc1)c1ccccc1)N2C(=O)OCc1ccccc1", "note": "[Compound C37, (1R,2S,5S)-8-((benzyloxy)carbonyl)-3-(diphenylcarbamoyl)-3,8-diazabicyclo [3.2.1]octane-2-carboxylic acid]", "values": [{"measurement": "IC50", "setting": "AT1 Receptor (AT1R)", "result": "> 10000", "unit": "nM"}, {"measurement": "IC50", "setting": "AT2 Receptor (AT2R)", "result": 55.3, "unit": "nM"}]}
